In patent US20150164895A1, “DETERMINING SENSITIVITY OF CELLS TO B-RAF INHIBITOR TREATMENT BY DETECTING KRAS MUTATION AND RTK EXPRESSION LEVELS” (GENENTECH, INC., priority 2009, published 2015):
Where “and” joins values, the source holds several entries; their conditions need not be identical. Equal entries are not always repeated.

Experiments:
[1] = system: pERK in BRAF V600E cells expressing EGFR; assay: pERK MSD assay, basal and EGF-stimulated; type: cell-based; settings: serum starved, -EGF or +EGF
Experimental: (A) Table of genotype and EGFR levels among lines tested. (B) Measurement of basal and stimulated pERK levels: cells were treated with […] compound in serum free media for 1 hour. For stimulation 20 ng/ml EGF was added for 5 min before cells were lysed. Lysates were transferred to an MSD plate where phospho- and total ERK levels were measured. (C) pERK IC50 data are plotted for the two Raf inhibitors (CHR-265, 1-methyl-5-[[2-[5-(trifluoromethyl)-1H-imidazol-2-yl]-4-pyridinyl]oxy]-N-[4-(trifluoromethyl)phenyl]-1H-Benzimidazol-2-amine and GDC-0879) under basal and EGF-stimulated conditions.
FIG. 29 summarizes certain RAF inhibitor (GDC-0879, PLX-4720 and “Raf inh a” which is 2,6-difluoro-N-(3-methoxy-1H-pyrazolo[3,4-b]pyridin-5-yl)-3-(propylsulfonamido)benzamide) potencies for blocking cellular pERK induction in response to EGF stimulation.

[2] = system: WT Raf isoforms; assay: Biochemical enzyme assay at physiological [ATP]
Text: FIG. 1 depicts Biochemical enzyme assay data.

[3] = system: C-RAF in A375 (B-RAFV600E) cells transfected with KRASG12D; assay: C-RAF immunoprecipitation: kinase activity and B-RAF heterodimerization; type: cell-based; design: dose or concentration left out as unconfirmed; settings: A375 transfected with mutant KRASG12D; dosed at 0.1, 1
Experimental: FIGS. 20A, B, C and D depict the importance of the role of active Ras plays in C-RAF activation and phospho-MEK induction by RAF inhibitors. (A) A375 (B-RAFV600E) cells were treated with GDC-0879 or PLX4720 for 1 hour and lysed in hypotonic buffer for membrane fractionation. Both membrane (P100) and cytosolic (S100) fractions were immunoblotted with the indicated antibodies. (B) MeWo cells were transiently transfected with KRASWT or KRASSI7N, treated with GDC-0879 or PLX4720 (at […]) for 1 hour and fractionated into membrane (P100) and cytosolic (S100) fractions. Aliquots of the membrane and cytosolic fractions were immunoblotted with anti-phospho- and anti-total MEK antibodies. (C) RAS-GTP levels were measured from lysates of MeWo (RAS/RAFWT), A375 (B-RAFV600E) and H2122 (KRASMT) cells with a Ras-GTP ELISA protocol using immobilized C-RAF-RBD as bait for capturing RAS-GTP. Relative luminescent units represent RAS detection of an anti-RAS antibody bound to the RBD. RAS-GTP H2122>>Mewo>A375. […] C-RAF was immunoprecipitated from control and inhibitor-treated cells and assayed for protein activity and B-RAF heterodimerization. Total C-RAF levels shown by WB in the immunoprecipitate indicate loading for each lane.

[4] = system: LXFA 983/9N4 (Lung, adeno); assay: Oncotest Exp H331: growth of LXFA 983 lung tumor xenograft after dosing with B-RAF inhibitor; type: in vivo, mice; settings: H331-2, 100 mg/kg/day, Days 0-21; for Absolute body weight, Median / Relative body weight, Median / Absolute tumor volume: (a*b*b)/2, Median / Relative tumor volume, Median: group median; for Absolute body weight, Median / Relative body weight, Median: n 10; for Absolute tumor volume: (a*b*b)/2, Median / Relative tumor volume, Median: n 15; for Relative tumor volume / Absolute tumor volume: (a*b*b)/2: individual tumors
Text: FIGS. 10-18 depict growth in lung tumor xenografts after dosing with GDC-0879.
The data are shown below, and in FIGS. 10-14 for Experiment H331 and FIGS. 15-18 for Experiment H327.

[5] = study day 3, individual animals, listed as G-026887
[6] = study day 3, listed as G-026887
[7] = study day 7, individual animals, listed as G-026887
[8] = study day 7, listed as G-026887
[9] = study day 10, individual animals, listed as G-026887
[10] = study day 10, listed as G-026887
[11] = study day 14, individual animals, listed as G-026887
[12] = study day 14, listed as G-026887
[13] = study day 17, individual animals, listed as G-026887
[14] = study day 17, listed as G-026887
[15] = study day 21, individual animals, listed as G-026887
[16] = study day 21, listed as G-026887

OCCn1cc(-c2ccc3c(c2)CC/C3=N\O)c(-c2ccncc2)n1 [GDC-0879, 2-{4-[(1E)-1-(hydroxyimino)-2,3-dihydro-1H-inden-5-yl]-3-(pyridine-4-yl)-1H-pyrazol-1-yl}ethan-1-ol]
blocking wildtype RAF signaling / selectivity (pERK induction in response to EGF) [1]: can more efficiently block wildtype RAF signaling
potency in biochemical enzyme assay [2]: maintains effective potency
B-RAF:C-RAF heterodimers and C-RAF kinase activation [3]: induce B-RAF:C-RAF heterodimers and C-RAF kinase activation
Survival time ([4]; individual animals, listed as G-026887): >22 days (6×) and >21 days (14×)
Absolute body weight, Median ([4]; study day 0): 27.5 g
Relative body weight, Median ([4]; study day 0): 100.0%
Absolute tumor volume: (a*b*b)/2, Median ([4]; study day 0): 117.2 mm3
Relative tumor volume, Median ([4]; study day 0): 100.0%
Relative body weight ([4]; study day 0, individual animals): 100.0%
Absolute body weight ([4]; study day 0, individual animals, listed as G-026887): 27.2 g and 26.9 g and 27.3 g and 26.1 g and 29.4 g and 24.8 g and 31.2 g (2×) and 30.2 g and 27.6 g
Relative tumor volume ([4]; study day 0): 100.0%
Absolute tumor volume: (a*b*b)/2 ([4]; study day 0, listed as G-026887): 117.2 mm3 and 121.1 mm3 and 94.1 mm3 and 137.3 mm3 and 237.3 mm3 and 62.5 mm3 and 80.2 mm3 and 123.0 mm3 and 111.6 mm3 and 74.4 mm3 (2×) and 219.4 mm3 and 55.3 mm3 and 150.4 mm3 and 130.7 mm3
Absolute body weight, Median ([4]; study day 3): 27.2 g
Relative body weight, Median ([4]; study day 3): 97.9%
Absolute tumor volume: (a*b*b)/2, Median ([4]; study day 3): 236.3 mm3
Relative tumor volume, Median ([4]; study day 3): 211.7%
Absolute body weight [4, 5]: 26.8 g and 27.2 g and 26.7 g and 25.6 g and 27.9 g and 24.7 g and 29.4 g and 29.2 g and 27.1 g and 29.6 g
Relative body weight [4, 5]: 94.9% (2×) and 98.5% and 101.1% and 97.8% and 98.1% and 99.6% and 94.2% and 96.7% and 98.2%
Absolute tumor volume: (a*b*b)/2 [4, 6]: 265.6 mm3 and 166.6 mm3 and 188.5 mm3 and 239.1 mm3 and 546.2 mm3 and 176.4 mm3 and 210.9 mm3 and 268.8 mm3 and 236.3 mm3 and 156.8 mm3 and 392.9 mm3 and 119.1 mm3 and 310.7 mm3 and 295.9 mm3 and 83.2 mm3
Relative tumor volume [4, 6]: 111.8% and 226.6% and 137.6% and 200.4% and 174.1% and 230.2% and 282.2% and 263.0% and 218.5% and 211.7% and 210.9% and 179.1% and 215.3% and 206.6% and 226.4%
Absolute body weight, Median ([4]; study day 7): 27.3 g
Relative body weight, Median ([4]; study day 7): 96.5%
Absolute tumor volume: (a*b*b)/2, Median ([4]; study day 7): 348.2 mm3
Relative tumor volume, Median ([4]; study day 7): 293.3%
Absolute body weight [4, 7]: 26.3 g (2×) and 27.4 g and 25.7 g and 27.1 g and 24.2 g and 28.9 g and 28.1 g and 27.6 g and 29.3 g
Relative body weight [4, 7]: 93.9% and 96.7% and 101.9% and 96.3% and 98.5% and 92.2% and 97.6% and 92.6% and 93.0% and 100.0%
Absolute tumor volume: (a*b*b)/2 [4, 8]: 392.9 mm3 and 325.1 mm3 and 261.6 mm3 and 445.5 mm3 and 689.1 mm3 and 289.1 mm3 and 348.2 mm3 and 344.4 mm3 and 455.1 mm3 and 253.1 mm3 and 560.0 mm3 and 216.6 mm3 and 352.5 mm3 and 383.3 mm3
Relative tumor volume [4, 8]: 152.3% and 335.2% and 268.5% and 278.0% and 324.4% and 290.4% and 462.6% and 434.2% and 280.0% and 407.8% and 340.4% and 255.3% and 391.6% and 234.4%
Absolute body weight, Median ([4]; study day 10): 27.3 g
Relative body weight, Median ([4]; study day 10): 97.9%
Absolute tumor volume: (a*b*b)/2, Median ([4]; study day 10): 406.6 mm3
Relative tumor volume, Median ([4]; study day 10): 392.5%
Absolute body weight [4, 9]: 26.7 g (2×) and 26.9 g and 25.6 g and 27.6 g and 25.3 g and 29.1 g (2×) and 28.6 g (2×)
Relative body weight [4, 9]: 91.7% and 98.2% and 100.0% and 97.8% and 98.1% and 93.9% and 102.0% and 93.3% and 96.4% and 103.6%
Absolute tumor volume: (a*b*b)/2 [4, 10]: 431.7 mm3 and 379.3 mm3 and 329.5 mm3 and 539.0 mm3 and 964.8 mm3 and 404.0 mm3 and 612.5 mm3 and 525.4 mm3 and 528.2 mm3 and 302.6 mm3 and 570.0 mm3 and 348.5 mm3 and 372.6 mm3 and 406.6 mm3
Relative tumor volume [4, 10]: 269.9% and 368.3% and 313.3% and 350.2% and 392.5% and 406.6% and 646.4% and 763.8% and 427.1% and 473.3% and 406.9% and 259.8% and 630.2% and 247.8%
Absolute body weight, Median ([4]; study day 14): 28.6 g
Relative body weight, Median ([4]; study day 14): 99.5%
Absolute tumor volume: (a*b*b)/2, Median ([4]; study day 14): 578.8 mm3
Relative tumor volume, Median ([4]; study day 14): 580.3%
Absolute body weight [4, 11]: 26.8 g and 27.2 g and 28.2 g and 25.5 g and 29.1 g and 25.8 g and 29.4 g and 30.2 g and 28.9 g and 30.3 g
Relative body weight [4, 11]: 97.1% and 98.5% and 101.1% and 103.3% and 97.7% and 99.0% and 104.0% and 94.2% and 100.0% and 104.7%
Absolute tumor volume: (a*b*b)/2 [4, 12]: 578.8 mm3 and 655.5 mm3 and 545.9 mm3 and 574.3 mm3 and 1411.2 mm3 and 581.0 mm3 and 1115.4 mm3 and 951.3 mm3 and 891.1 mm3 and 318.2 mm3 and 597.5 mm3 and 390.2 mm3 and 510.0 mm3 and 499.4 mm3
Relative tumor volume [4, 12]: 620.2% and 493.8% and 541.3% and 580.3% and 418.3% and 594.7% and 929.7% and 1390.9% and 773.4% and 798.5% and 427.9% and 272.4% and 705.6% and 339.1%
Absolute body weight, Median ([4]; study day 17): 28.8 g
Relative body weight, Median ([4]; study day 17): 100.8%
Absolute tumor volume: (a*b*b)/2, Median ([4]; study day 17): 742.6 mm3
Relative tumor volume, Median ([4]; study day 17): 719.8%
Absolute body weight [4, 13]: 27.2 g and 27.6 g and 28.5 g and 25.8 g (2×) and 29.5 g (2×) and 30.6 g and 29.0 g and 30.7 g
Relative body weight [4, 13]: 98.4% and 100.0% and 102.6% and 104.4% and 98.9% and 100.3% and 104.0% and 94.6% and 101.3% and 105.1%
Absolute tumor volume: (a*b*b)/2 [4, 14]: 705.7 mm3 and 742.6 mm3 and 701.1 mm3 and 841.5 mm3 and 1708.0 mm3 and 642.0 mm3 and 1229.4 mm3 and 1327.1 mm3 and 1247.1 mm3 and 426.5 mm3 and 778.8 mm3 and 520.5 mm3 and 606.4 mm3 and 758.4 mm3
Relative tumor volume [4, 14]: 860.5% and 602.1% and 613.3% and 745.2% and 612.8% and 719.8% and 1027.1% and 1533.1% and 1078.9% and 1117.5% and 573.5% and 355.0% and 941.4% and 403.2%
Absolute body weight, Median ([4]; study day 21): 29.0 g
Relative body weight, Median ([4]; study day 21): 103.5%
Absolute tumor volume: (a*b*b)/2, Median ([4]; study day 21): 958.8 mm3
Relative tumor volume, Median ([4]; study day 21): 826.5%
Absolute body weight [4, 15]: 28.6 g and 27.5 g and 29.3 g and 26.9 g and 31.1 g and 26.6 g and 30.6 g and 31.0 g and 28.7 g and 31.6 g
Relative body weight [4, 15]: 101.3% and 105.1% and 102.2% and 107.3% (2×) and 103.1% and 105.8% and 98.1% and 102.6% and 104.0%
Absolute tumor volume: (a*b*b)/2 [4, 16]: 893.3 mm3 and 1083.3 mm3 and 715.5 mm3 and 1030.4 mm3 and 1961.1 mm3 and 772.8 mm3 and 1472.3 mm3 and 1618.7 mm3 and 1461.9 mm3 and 550.0 mm3 and 958.8 mm3 and 609.2 mm3 and 712.9 mm3 and 874.7 mm3
Relative tumor volume [4, 16]: 1511.3% and 762.1% and 894.7% and 760.5% and 750.4% and 826.5% and 1236.5% and 1836.0% and 1316.0% and 1309.9% and 739.6% and 437.1% and 1101.7% and 474.0%
